From patent US20230000813A1, “COMPOUND FOR THE TREATMENT OF BOVINE OR SWINE RESPIRATORY DISEASE” (Intervet Inc., priority 2016, published 2023)
Converted amounts (≈) assume the structure as drawn. Like-named read-outs stand apart in the source and are kept apart here.

Legend:
Assay in all cases: MIC, broth-microdilution (CLSI VET01-A4)
Assay type in all cases: cell-based
[1] = test system: Mannheimia haemolytica MH 13093 (XB0472-6014.1, BRD field isolate)
Summary of the method: (§1)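 MIC read by eye as lowest compound concentration without visible growth (no turbidity), interpreted per CLSI VET01-S3. Doubling-dilution broth-microdilution trays, run according to CLSI VET01-A4.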

[2] = test system: Mannheimia haemolytica MH 13065 (XB0446-6003.9, BRD field isolate)
Summary of the method: as §1

[3] = test system: Pasteurella multocida PM 6267 (P 2225 (L386), reference strain, mouse infection strain); conditions: Pasteurella multocida PM 6267; for MIC: read-out: MIC PM 6267
Summary of the method: (§2)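 Visual no-turbidity endpoint over twofold compound dilutions in microdilution trays, interpreted according to CLSI VET01-S3.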

[4] = test system: Pasteurella multocida PM 12080 (IV102277-0093, BRD field isolate); conditions: Pasteurella multocida PM 12080; for MIC: read-out: MIC PM 12080
Summary of the method: as §2

[5] = test system: Mannheimia haemolytica MH 12587 (1071, BRD field isolate, macrolide-resistance: erm+, E+); conditions: for MIC MH 12587: Mannheimia haemolytica MH 12587, macrolide-resistant
Summary of the method: as §2

[6] = test system: Mannheimia haemolytica MH 6357 (M7/2, reference strain, cattle infection strain); conditions: Mannheimia haemolytica MH 6357; read-out: MIC MH 6357
Summary of the method: as §2

[7] = test system: Pasteurella multocida PM 10775 (080130003051, BRD field isolate); conditions: Pasteurella multocida PM 10775; for MIC: read-out: MIC PM 10775
Summary of the method: as §2

[8] = test system: Pasteurella multocida PM 6391 (ATCC 43137, reference strain); conditions: Pasteurella multocida PM 6391; for MIC: read-out: MIC PM 6391
Summary of the method: as §2

[9] = test system: Mannheimia haemolytica MH 6374 (ATCC 33396, reference strain); conditions: Mannheimia haemolytica MH 6374, read-out: MIC MH 6374
Summary of the method: as §2

[10] = test system: Mannheimia haemolytica MH 10720 (154, BRD field isolate); conditions: Mannheimia haemolytica MH 10720; for MIC: read-out: MIC MH 10720
Summary of the method: as §2

Compound | MIC [1] [µM] | MIC [2] [µM] | MIC PM 6267 [3] | MIC PM 12080 [4] | MIC MH 12587 [5] [µM] | MIC [6] [µM] | MIC PM 10775 [7] | MIC PM 6391 [8] | MIC [9] [µM] | MIC MH 10720 [10] | MIC [8] [µM] | MIC [3] [µM] | MIC [4] [µM] | MIC [7] [µM] | MIC [10] [µM] | MIC ([5]; Mannheimia haemolytica, read-out: MIC MH 12587) [µM] | MIC ([8]; ATCC43137) [µM] | MIC ([9]; ATCC33396) [µM]
CC(C)(O)C(NC(=O)c1ccc(C#Cc2ccc(CNCc3ccccn3)cc2)cc1)C(=O)NO (centres unmarked) [Compound 576] | 0.8 (≈ 0.378 µg/mL) | 0.8 (≈ 0.378 µg/mL) | <=0.1 μM | <=0.1 μM | 1.6 (≈ 0.756 µg/mL) | 0.8 (≈ 0.378 µg/mL) | <=0.1 μM | <=0.1 μM | 0.4 (≈ 0.189 µg/mL) | <=0.1 μM |  |  |  |  |  |  |  | 
CC(C)(C(NC(=O)c1ccc(C#Cc2ccc(CNCc3ccccc3)cc2)cc1)C(=O)NO)[N+](=O)[O-] (racemic) [Compound 652] | 0.8 (≈ 0.4 µg/mL) | 0.4 (≈ 0.2 µg/mL) | <=0.1 μM | <=0.1 μM | 0.8 (≈ 0.4 µg/mL) | 0.8 (≈ 0.4 µg/mL) | <=0.1 μM |  | 0.8 (≈ 0.4 µg/mL) | <=0.1 μM | 0.4 (≈ 0.2 µg/mL) |  |  |  |  |  |  | 
C[C@@H](O)[C@H](NC(=O)c1ccc(C#Cc2ccc(CN3CCc4ccccc4C3)s2)cc1)C(=O)NO [Compound 194] | 0.8 (≈ 0.392 µg/mL) | 0.4 (≈ 0.196 µg/mL) | <=0.1 μM | <=0.1 μM | 0.8 (≈ 0.392 µg/mL) | 0.2 (≈ 0.0979 µg/mL) | <=0.1 μM | <=0.1 μM | 0.8 (≈ 0.392 µg/mL) | <=0.1 μM |  |  |  |  |  |  |  | 
COc1ccc(CNCc2ccc(C#Cc3ccc(C(=O)NC(C(=O)NO)C(C)(C)SC)cc3)cc2)cc1 (centres unmarked) [Compound 586] | 1.6 (≈ 0.851 µg/mL) | 1.6 (≈ 0.851 µg/mL) |  |  | 1.6 (≈ 0.851 µg/mL) | 1.6 (≈ 0.851 µg/mL) |  |  | 1.6 (≈ 0.851 µg/mL) |  | 0.8 (≈ 0.425 µg/mL) | 0.2 (≈ 0.106 µg/mL) | 0.4 (≈ 0.213 µg/mL) | 0.2 (≈ 0.106 µg/mL) | 0.4 (≈ 0.213 µg/mL) |  |  | 
CCC(C)C(NC(=O)c1ccc(C#Cc2ccc(CNCc3cccnc3)cc2)cc1)C(=O)NO (centres unmarked) [Compound 299] | 0.8 (≈ 0.376 µg/mL) | 0.8 (≈ 0.376 µg/mL) |  |  | 1.6 (≈ 0.753 µg/mL) | 0.4 (≈ 0.188 µg/mL) | <=0.1 μM |  | 0.8 (≈ 0.376 µg/mL) | <=0.1 μM | 1.6 (≈ 0.753 µg/mL) | 0.2 (≈ 0.0941 µg/mL) | 0.4 (≈ 0.188 µg/mL) |  |  |  |  | 
Cc1ccc(CNCc2ccc(C#Cc3ccc(C(=O)N[C@H](C(=O)NO)[C@@H](C)O)cc3)cc2)cc1 [Compound 261] | 0.8 (≈ 0.377 µg/mL) | 0.4 (≈ 0.189 µg/mL) | <=0.1 μM | <=0.1 μM | 0.8 (≈ 0.377 µg/mL) | 0.2 (≈ 0.0943 µg/mL) | <=0.1 μM | <=0.1 μM | 0.2 (≈ 0.0943 µg/mL) | <=0.1 μM |  |  |  |  |  |  |  | 
C=CCNCc1ccc(C#Cc2ccc(C(=O)NC(C(=O)NO)C(C)(C)SC)cc2)cc1 (centres unmarked) [C. 582] | 0.8 (≈ 0.361 µg/mL) | 0.8 (≈ 0.361 µg/mL) | <=0.1 μM |  | 1.6 (≈ 0.723 µg/mL) | 0.8 (≈ 0.361 µg/mL) | <=0.1 μM |  | 0.8 (≈ 0.361 µg/mL) | <=0.1 μM | 0.4 (≈ 0.181 µg/mL) |  | 0.4 (≈ 0.181 µg/mL) |  |  |  |  | 
CC(C)(O)C(NC(=O)c1ccc(C#Cc2ccc(CNCc3ccnc(Cl)c3)cc2)cc1)C(=O)NO (centres unmarked) [Compound 575] | 0.4 (≈ 0.203 µg/mL) | 0.2 (≈ 0.101 µg/mL) | <=0.1 μM | <=0.1 μM | 0.4 (≈ 0.203 µg/mL) | 0.4 (≈ 0.203 µg/mL) | <=0.1 μM | <=0.1 μM | 0.4 (≈ 0.203 µg/mL) | <=0.1 μM |  |  |  |  |  |  |  | 
C[C@@H](O)[C@H](NC(=O)c1ccc(C#Cc2ccc([N+](=O)[O-])cc2)cc1)C(=O)NO [Compound 243, N-[(1S,2R)-2-hydroxy-1-(hydroxycarbamoyl)propyI]-4-[2-(4-nitrophenyl)ethynyl]benzamide] | 1.6 (≈ 0.613 µg/mL) | 0.4 (≈ 0.153 µg/mL) |  |  |  | 0.2 (≈ 0.0767 µg/mL) |  |  |  |  |  | ≤ 0.1 | 0.2 (≈ 0.0767 µg/mL) | ≤ 0.1 | ≤ 0.1 | 0.8 (≈ 0.307 µg/mL) | 0.2 (≈ 0.0767 µg/mL) | 0.4 (≈ 0.153 µg/mL)
C[C@@H](O)[C@H](NC(=O)c1ccc(C#Cc2ccc(CNCc3cccnc3)cc2)cc1)C(=O)NO [Compound 256] | 0.8 (≈ 0.367 µg/mL) | 0.8 (≈ 0.367 µg/mL) | <=0.1 μM | <=0.1 μM | 1.6 (≈ 0.734 µg/mL) | 0.4 (≈ 0.183 µg/mL) | <=0.1 μM | <=0.1 μM | 0.4 (≈ 0.183 µg/mL) | <=0.1 μM |  |  |  |  |  |  |  | 
C[C@@H](O)[C@H](NC(=O)c1ccc(C#Cc2ccc(CN3CCc4ccccc4C3)o2)cc1)C(=O)NO [Compound 203] | 0.8 (≈ 0.379 µg/mL) | 0.8 (≈ 0.379 µg/mL) | <=0.1 μM |  | 1.6 (≈ 0.758 µg/mL) | 0.8 (≈ 0.379 µg/mL) | <=0.1 μM |  | 0.8 (≈ 0.379 µg/mL) | <=0.1 μM | 0.4 (≈ 0.189 µg/mL) |  | 0.2 (≈ 0.0947 µg/mL) |  |  |  |  | 
Cc1cnc(CNCc2ccc(C#Cc3ccc(C(=O)NC(C(=O)NO)C(C)(C)N)cc3)s2)o1 (racemic) [Compound 636] | 0.8 (≈ 0.385 µg/mL) | 1.6 (≈ 0.771 µg/mL) | <=0.1 μM |  | 1.6 (≈ 0.771 µg/mL) | 0.8 (≈ 0.385 µg/mL) | <=0.1 μM |  | 0.4 (≈ 0.193 µg/mL) | <=0.1 μM | 0.4 (≈ 0.193 µg/mL) |  | 0.4 (≈ 0.193 µg/mL) |  |  |  |  | 
CC(C)(N)C(NC(=O)c1ccc(C#Cc2ccc(CNCc3ccc(F)cc3)s2)cc1)C(=O)NO (racemic) [Compound 637] | 0.8 (≈ 0.396 µg/mL) | 1.6 (≈ 0.791 µg/mL) | <=0.1 μM |  | 1.6 (≈ 0.791 µg/mL) | 0.8 (≈ 0.396 µg/mL) |  |  | 0.4 (≈ 0.198 µg/mL) | <=0.1 μM | 0.4 (≈ 0.198 µg/mL) |  | 0.2 (≈ 0.0989 µg/mL) | 0.2 (≈ 0.0989 µg/mL) |  |  |  | 
CC(C)(O)C(NC(=O)c1ccc(C#Cc2ccc(CNCc3ccccc3)cc2)cc1)C(=O)NO (centres unmarked) [Compound 569] | 0.4 (≈ 0.189 µg/mL) | 0.4 (≈ 0.189 µg/mL) | <=0.1 μM | <=0.1 μM | 0.8 (≈ 0.377 µg/mL) | 0.8 (≈ 0.377 µg/mL) | <=0.1 μM | <=0.1 μM | 0.4 (≈ 0.189 µg/mL) | <=0.1 μM |  |  |  |  |  |  |  | 
